A word on the pIC50: it is the negative decadic logarithm of the IC50, by convention in mol/L. High values mean a low IC50, low ones a high IC50.

pIC50: −log10 of the molar value.

For 5 compounds, IC50 results are on record in BindingDB's records for patent US11053253 (Achillion Pharmaceuticals, 2021).

The target in this assay is Complement factor D (Homo sapiens, UniProt P00746). The experiment in a line: Human Factor D Assay. As for the experimental part: Human Factor D (purified from human serum, Complement Technology, Inc.) at 80 nM final concentration is incubated with test compound at various concentrations for 5 min at room temperature in 50 mM Tris, 1M NaCl, pH 7.5. A synthetic substrate Z-L-Lys-SBzl and DTNB (Ellman's reagent) are added to final concentrations of 100 µM each. Absorbance at 405 nm (A405) is recorded at 30 second intervals for 30 minutes using a microplate spectrophotometer. IC50 values are calculated by nonlinear regression of Complement Factor D reaction rates as a function of test compound concentration.
Complement factor D, sequence (P00746 whole entry): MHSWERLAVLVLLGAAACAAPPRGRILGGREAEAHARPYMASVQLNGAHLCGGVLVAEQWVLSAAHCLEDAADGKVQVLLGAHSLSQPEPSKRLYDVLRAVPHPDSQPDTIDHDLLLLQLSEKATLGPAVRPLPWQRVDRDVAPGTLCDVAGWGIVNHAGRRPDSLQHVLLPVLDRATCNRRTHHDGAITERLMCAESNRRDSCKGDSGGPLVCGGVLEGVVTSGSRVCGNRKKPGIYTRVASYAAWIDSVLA
On to `CC(=O)c1nn(CC(=O)N2[C@H]3C[C@]4(C[C@@H]24)Cn2ccc(n2)/C=C/COCc2ccc(Br)nc2NC3=O)c2ccc(-c3cnc(C)nc3)cc12` [US11053253, Cmp No. T-67], for which the pIC50 was above 6.00.
For `CC(=O)c1nn(CC(=O)N2[C@H]3C[C@]4(C[C@@H]24)Cn2ccc(n2)/C=C/COCc2ccc(Br)nc2NC3=O)c2cnc(-c3cnc(C)nc3)cc12` [US11053253, Cmp No. T-68] the value was above 6.00; for `CC(=O)c1nn(CC(=O)N2[C@H]3C[C@@]4(COCC=CCOCc5cc(Br)nc(c5)NC3=O)C[C@@H]24)c2cnc(-c3cnc(C)nc3)cc12` [US11053253, Cmp No. T-83], above 6.00; for `CC(=O)c1nn(CC(=O)N2[C@H]3C[C@@]4(C=CCCCN(C)S(=O)(=O)Cc5ccc(Br)nc5NC3=O)C[C@@H]24)c2ccc(-c3cnc(C)nc3)cc12` [US11053253, Cmp No. T-215], above 6.00.
`CC(=O)c1nn(CC(=O)N2[C@H]3C[C@@]4(C=CCCCN(C)S(=O)(=O)Cc5ccc(Br)nc5NC3=O)C[C@@H]24)c2c(C)cc(-c3cnc(C)nc3)cc12` [US11053253, Cmp No. T-216] had a pIC50 above 6.00.
